Test systems include A549; CAKI-1; CCRF-CEM; HCT-116; K562; MOLT-4; Malme-3M; NCI-H226; NCI-H23; NCI-H522; OVCAR-4; SK-OV-3; SN12C; SNB-75; TK-10; UACC-62; UO-31; HCT-15; RXF 393.
Common to all, as to test: NCI tumour cell line growth inhibition, 48 h

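The compound was tested at five concentrations on cells cultured in 96-well plates, with a 48-hour exposure period. GI50 is the concentration that inhibits growth by half.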 Active and inactive are the calls of the source. Cut-off read from the data, not from the text of the source: active = GI50 up to about 1.1 µM and inactive = higher. Bounds are passed on as bounds.

Turning to `CCCCCCCCCCCCCCCCCC(=O)NCC(COP(=O)(O)O)OCC` (stereo not drawn), the GI50 is 31.1 µM (inactive) with A549; 31.2 µM (inactive) in the assay on CAKI-1; > 100 µM (inactive) in the assay with CCRF-CEM; 58.6 µM (inactive) in the assay on HCT-116; > 100 µM (inactive) in the assay with K562; > 100 µM (inactive) with MOLT-4. For the same molecule, the GI50 in the assay with Malme-3M is > 100 µM (inactive); in the assay on NCI-H226 it was 27.7 µM (inactive); in the assay on NCI-H23, 14.1 µM (inactive); with NCI-H522, 29.7 µM (inactive); with OVCAR-4, > 100 µM (inactive); in the assay on SK-OV-3 it was 34.9 µM (inactive). In addition, the GI50 in the assay on SN12C was 22 µM (inactive); in the assay with SNB-75, 26.1 µM (inactive); in the assay on TK-10, 49.2 µM (inactive); with UACC-62, 54.3 µM (inactive); in the assay on UO-31, 34.1 µM (inactive).
As for `Cn1c(CBr)nc2c1C(=O)c1nc(CBr)[nH]c(=O)c1C2=O`, the GI50 in the assay with A549 was > 100 µM (inactive); in the assay on CAKI-1, > 100 µM (inactive); in the assay on CCRF-CEM it was 40.5 µM (inactive); in the assay with HCT-116 it was > 100 µM (inactive); with HCT-15 it was over 100 µM; with K562, > 100 µM (inactive). Also, the GI50 with MOLT-4, in the assay with NCI-H23, in the assay with NCI-H522, in the assay with RXF 393, with SK-OV-3 and in the assay with SN12C was > 100 µM (inactive) in each case. For the same molecule, the GI50 in the assay with TK-10, in the assay on UACC-62 and in the assay with UO-31 was > 100 µM (inactive) throughout.
As for `Cc1nc(C(N)=S)sc1/C(CC(=O)C(=O)Nc1cccc2ccc(O)cc12)=N\NC(=O)c1ccncc1`, the GI50 with A549 is > 100 µM (inactive); in the assay with CAKI-1, > 100 µM (inactive); in the assay with CCRF-CEM it was 33.4 µM (inactive); in the assay on HCT-116, 55.8 µM (inactive); in the assay on HCT-15, 41.9 µM; with MOLT-4, 28.2 µM (inactive). In addition, the GI50 in the assay on NCI-H226 is 61.1 µM (inactive); with NCI-H23 it was > 100 µM (inactive); in the assay on NCI-H522, 34.5 µM (inactive); with OVCAR-4, 49.9 µM (inactive); in the assay with RXF 393 it was > 100 µM (inactive); with SK-OV-3 it was > 100 µM (inactive). For the same molecule, the GI50 with SN12C is 35.1 µM (inactive); in the assay with SNB-75 it was > 100 µM (inactive); in the assay on TK-10 it was 77.8 µM (inactive); in the assay on UACC-62, 29.5 µM (inactive); with UO-31, 98.2 µM (inactive).
In the case of `O=C(Cn1cc(-c2ccccc2)nn1)NC1CCCCC1`, the GI50 is > 100 µM (inactive) with A549; > 100 µM (inactive) in the assay on CAKI-1; > 100 µM (inactive) in the assay on CCRF-CEM; > 100 µM (inactive) in the assay with HCT-116; over 100 µM in the assay with HCT-15; > 100 µM (inactive) with K562. Further, the GI50 with MOLT-4, in the assay on Malme-3M, in the assay with NCI-H226, in the assay with NCI-H23, in the assay on NCI-H522 and in the assay on OVCAR-4 was > 100 µM (inactive) in each case. Moreover, the GI50 in the assay on SN12C, in the assay on SNB-75 and with TK-10 was > 100 µM (inactive) each time.
In the case of `COc1ccc(N2C(=O)C3c4[nH]c5ccccc5c4C4CCCCCCCCCCC4C3C2=O)cc1` (stereo not drawn), the GI50 was 4.84 µM (inactive) in the assay on A549; 35.4 µM (inactive) in the assay on CAKI-1; 9.27 µM (inactive) in the assay on CCRF-CEM; 5.25 µM (inactive) in the assay with HCT-116; 5.52 µM in the assay with HCT-15; 19 µM (inactive) in the assay with K562. The GI50 is 15 µM (inactive) in the assay on MOLT-4; 17.1 µM (inactive) in the assay on Malme-3M; 6.93 µM (inactive) in the assay on NCI-H226; 9.38 µM (inactive) with NCI-H23; 18 µM (inactive) with NCI-H522; 26.2 µM (inactive) in the assay on OVCAR-4. In addition, the GI50 with SK-OV-3 was 28.8 µM (inactive); in the assay with SN12C, 4.89 µM (inactive); with SNB-75, 12.7 µM (inactive); in the assay on TK-10, > 43.8 µM (inactive); with UACC-62, 18.5 µM (inactive); with UO-31, > 40.6 µM (inactive).
In the case of `Cc1ccc(S(=O)(=O)NC(=O)C2S(=O)(=O)OCCOS2(=O)=O)cc1`, the GI50 is > 100 µM (inactive) with A549; > 100 µM (inactive) in the assay on CAKI-1; > 100 µM (inactive) in the assay on CCRF-CEM; > 100 µM (inactive) with HCT-116; > 100 µM (inactive) in the assay with K562; > 10 µM (inactive) in the assay with MOLT-4. Moreover, the GI50 in the assay on Malme-3M was > 100 µM (inactive); in the assay on NCI-H226 it was 1.24 µM (inactive); in the assay with NCI-H23, > 100 µM (inactive); in the assay with NCI-H522, > 100 µM (inactive); in the assay with OVCAR-4, > 100 µM (inactive); in the assay on SK-OV-3, > 100 µM (inactive). Besides, the GI50 in the assay with SN12C was > 100 µM (inactive); in the assay on SNB-75, > 100 µM (inactive); with TK-10 it was > 100 µM (inactive); in the assay with UACC-62, > 100 µM (inactive); with UO-31 it was 40.8 µM (inactive).
Turning to `CC(C)C(Sc1nc(-c2ccccc2)c(-c2ccccc2)[nH]1)c1n[nH]c(=S)n1-c1ccccc1` (stereo not drawn), the GI50 with A549 was 33.7 µM (inactive); in the assay with CCRF-CEM, 23.9 µM (inactive); in the assay on HCT-116, 41.6 µM (inactive); in the assay on HCT-15, 50.5 µM; in the assay with MOLT-4 it was 18 µM (inactive); in the assay on Malme-3M, 21.2 µM (inactive). Moreover, the GI50 is 37.7 µM (inactive) with NCI-H226; 21.9 µM (inactive) with NCI-H23; 21 µM (inactive) with NCI-H522; 35.5 µM (inactive) in the assay on OVCAR-4; 40.3 µM (inactive) with SK-OV-3; 37.2 µM (inactive) in the assay on SN12C. Also, the GI50 in the assay on SNB-75 was 66.5 µM (inactive); in the assay with TK-10 it was 45 µM (inactive); with UACC-62 it was 11.5 µM (inactive); in the assay on UO-31, 22.8 µM (inactive).
As to `CC(C)=CC(=O)c1c(C(=O)O)nc2ccccc2[n+]1[O-]`, the GI50 is > 100 µM (inactive) in the assay on A549; > 100 µM (inactive) in the assay with CAKI-1; > 100 µM (inactive) in the assay with CCRF-CEM; > 100 µM (inactive) with HCT-116; over 100 µM in the assay with HCT-15; > 100 µM (inactive) in the assay on K562. Also, the GI50 in the assay with MOLT-4, in the assay with NCI-H226, in the assay with NCI-H23, in the assay with OVCAR-4, in the assay on RXF 393 and with SK-OV-3 was > 100 µM (inactive) throughout. The GI50 in the assay on SN12C, with SNB-75, in the assay with TK-10, in the assay with UACC-62 and in the assay with UO-31 was > 100 µM (inactive) throughout.
Regarding `C=CC[P@@]1(=O)O[C@H](c2ccccc2)C(C)N1C(C)C` (stereo partly drawn), the GI50 in the assay on A549 is > 100 µM (inactive); in the assay on CCRF-CEM, > 100 µM (inactive); in the assay on HCT-15 it was over 100 µM; in the assay with K562, > 100 µM (inactive); in the assay with MOLT-4, > 100 µM (inactive); in the assay with Malme-3M it was > 100 µM (inactive). The GI50 with NCI-H226, with NCI-H23, with OVCAR-4, in the assay on RXF 393, in the assay on SK-OV-3 and in the assay on SN12C was > 100 µM (inactive) each time. The GI50 in the assay on SNB-75, in the assay on TK-10, in the assay on UACC-62 and in the assay with UO-31 was > 100 µM (inactive) throughout.

For the origin of these results see ChEMBL document CHEMBL1201862, “PubChem BioAssay data set” (2004).
